Assays:
[1] = target: T1, ATP-dependent translocase ABCB1 (Homo sapiens, UniProt P08183); test: TP_TRANSPORTER: uptake in K562 and K562/ADR cell; assay type: functional, cell-based
[2] = target: T1, ATP-dependent translocase ABCB1; test: TP_TRANSPORTER: transepithelial transport (basal to apical) in Caco-2 cells; assay type: functional, cell-based

T1 sequence (P08183 whole entry): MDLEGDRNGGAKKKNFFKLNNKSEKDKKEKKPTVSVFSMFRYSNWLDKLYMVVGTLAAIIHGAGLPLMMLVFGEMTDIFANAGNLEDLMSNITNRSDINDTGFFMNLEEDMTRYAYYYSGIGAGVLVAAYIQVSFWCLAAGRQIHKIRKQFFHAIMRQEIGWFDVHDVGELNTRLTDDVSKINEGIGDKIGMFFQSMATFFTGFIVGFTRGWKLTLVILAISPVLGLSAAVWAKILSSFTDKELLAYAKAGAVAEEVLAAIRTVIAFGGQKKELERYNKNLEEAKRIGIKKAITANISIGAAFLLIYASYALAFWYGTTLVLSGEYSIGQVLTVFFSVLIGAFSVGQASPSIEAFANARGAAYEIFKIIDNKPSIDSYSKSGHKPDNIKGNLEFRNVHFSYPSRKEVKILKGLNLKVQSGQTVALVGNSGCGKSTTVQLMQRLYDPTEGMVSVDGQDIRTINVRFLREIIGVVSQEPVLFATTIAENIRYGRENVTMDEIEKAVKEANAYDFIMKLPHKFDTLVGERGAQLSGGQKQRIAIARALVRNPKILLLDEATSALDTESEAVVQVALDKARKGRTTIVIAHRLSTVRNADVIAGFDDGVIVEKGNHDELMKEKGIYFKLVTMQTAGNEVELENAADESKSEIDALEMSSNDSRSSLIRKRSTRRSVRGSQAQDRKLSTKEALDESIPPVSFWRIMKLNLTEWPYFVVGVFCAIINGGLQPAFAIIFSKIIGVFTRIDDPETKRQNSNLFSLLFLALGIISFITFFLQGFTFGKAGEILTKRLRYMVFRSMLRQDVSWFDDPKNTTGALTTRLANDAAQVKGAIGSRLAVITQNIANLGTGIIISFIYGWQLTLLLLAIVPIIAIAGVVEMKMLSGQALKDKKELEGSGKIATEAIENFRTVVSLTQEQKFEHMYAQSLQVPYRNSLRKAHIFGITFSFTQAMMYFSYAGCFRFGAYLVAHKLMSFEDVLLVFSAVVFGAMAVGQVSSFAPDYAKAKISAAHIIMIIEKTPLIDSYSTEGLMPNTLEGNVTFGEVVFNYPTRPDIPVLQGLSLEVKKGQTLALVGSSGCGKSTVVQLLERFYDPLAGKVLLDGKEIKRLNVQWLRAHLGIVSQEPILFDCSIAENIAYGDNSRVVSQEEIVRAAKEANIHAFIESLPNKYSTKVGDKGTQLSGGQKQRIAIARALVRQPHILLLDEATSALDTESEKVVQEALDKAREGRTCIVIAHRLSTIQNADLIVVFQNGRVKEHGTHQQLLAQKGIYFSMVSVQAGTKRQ

Activity [1]	Activity [2]	Compound
substrate [+]		CC(C)(C)NC[C@H](O)COc1nsnc1N1CCOCC1 [TIMOLOL]
substrate [+]		CC(C)(C)NCC(O)COc1cccc2c1CC(O)C(O)C2 (stereo not given) [NADOLOL]
substrate [+]		CCN(CC)C(=O)Nc1ccc(OCC(O)CNC(C)(C)C)c(C(C)=O)c1 (stereo not given) [CELIPROLOL]
substrate [+]	substrate [+]	CCCC(=O)Nc1ccc(OCC(O)CNC(C)C)c(C(C)=O)c1 (stereo not given) [ACEBUTOLOL]
